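GI50 is the concentration that inhibits growth by half. TGI is the concentration that stops growth completely.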
Columns and labels:
Assay in all cases: NCI-60 cell line screen, 384-well format
786-0 renal = test system: 786-0 renal
A498 renal = test system: A498 renal
A549 NSCLC = test system: A549 NSCLC
ACHN renal = test system: ACHN renal
BT-549 breast = test system: BT-549 breast
CCRF-CEM leukemia = test system: CCRF-CEM leukemia
COLO 205 colon = test system: COLO 205 colon
EKVX NSCLC = test system: EKVX NSCLC
HCC-2998 colon = test system: HCC-2998 colon
HCT-116 colon = test system: HCT-116 colon
HCT-15 colon = test system: HCT-15 colon
HOP-62 NSCLC = test system: HOP-62 NSCLC
HOP-92 NSCLC = test system: HOP-92 NSCLC
HS 578T breast = test system: HS 578T breast
IGROV1 ovarian = test system: IGROV1 ovarian
K-562 leukemia = test system: K-562 leukemia
KM12 colon = test system: KM12 colon
LOX IMVI melanoma = test system: LOX IMVI melanoma
M14 melanoma = test system: M14 melanoma
MALME-3M melanoma = test system: MALME-3M melanoma
MCF7 breast = test system: MCF7 breast
MDA-MB-231 breast = test system: MDA-MB-231 breast
MDA-MB-468 breast = test system: MDA-MB-468 breast
MOLT-4 leukemia = test system: MOLT-4 leukemia
NCI-H23 lung = test system: NCI-H23 lung
NCI-H322M lung = test system: NCI-H322M lung
NCI-H460 NSCLC = test system: NCI-H460 NSCLC
NCI-H522 lung = test system: NCI-H522 lung
NCI/ADR-RES ovarian = test system: NCI/ADR-RES ovarian
OVCAR-4 ovarian = test system: OVCAR-4 ovarian
OVCAR-5 ovarian = test system: OVCAR-5 ovarian
OVCAR-8 ovarian = test system: OVCAR-8 ovarian
PC-3 prostate = test system: PC-3 prostate
RPMI-8226 leukemia = test system: RPMI-8226 leukemia
RXF 393 renal = test system: RXF 393 renal
SF-295 CNS = test system: SF-295 CNS
SF-539 CNS = test system: SF-539 CNS
SN12C renal = test system: SN12C renal
SNB-19 CNS = test system: SNB-19 CNS
SNB-75 CNS = test system: SNB-75 CNS
SR leukemia = test system: SR leukemia
SW-620 colon = test system: SW-620 colon
T-47D breast = test system: T-47D breast
U251 glioblastoma = test system: U251 glioblastoma
UACC-257 melanoma = test system: UACC-257 melanoma
UACC-62 melanoma = test system: UACC-62 melanoma
UO-31 renal = test system: UO-31 renal

## C=CC(=O)N1CCC(CNc2ncnc(N)c2-c2ccc(Oc3ccccc3)cc2)CC1
786-0 renal
  GI50: 18.7 µM
  TGI: 42.9 µM
A498 renal
  GI50: 17.2 µM
  TGI: 37 µM
A549 NSCLC
  GI50: 21 µM
  TGI: 55.4 µM
ACHN renal
  GI50: 25.4 µM
  TGI: 66.4 µM
BT-549 breast
  GI50: 14.1 µM
  TGI: 28.6 µM
CCRF-CEM leukemia
  GI50: 17.2 µM
  TGI: 31 µM
COLO 205 colon
  GI50: 22.5 µM
  TGI: 49.9 µM
EKVX NSCLC
  GI50: 20.1 µM
  TGI: 48.7 µM
HCC-2998 colon
  GI50: 18.7 µM
  TGI: 33.2 µM
HCT-116 colon
  GI50: 21.1 µM
  TGI: 48.3 µM
HCT-15 colon
  GI50: 23.6 µM
  TGI: 60 µM
HOP-62 NSCLC
  GI50: 20.7 µM
  TGI: 48.3 µM
HOP-92 NSCLC
  GI50: 15.2 µM
  TGI: 39.1 µM
HS 578T breast
  GI50: 11.4 µM
  TGI: 24.5 µM
IGROV1 ovarian
  GI50: 14.6 µM
  TGI: 28.3 µM
K-562 leukemia
  GI50: 15.2 µM
  TGI: 29.5 µM
KM12 colon
  GI50: 23 µM
  TGI: 47.6 µM
LOX IMVI melanoma
  GI50: 17.2 µM
  TGI: 31 µM
M14 melanoma
  GI50: 29.6 µM
  TGI: 77.4 µM
MALME-3M melanoma
  GI50: 30.5 µM
  TGI: > 73.5 µM
MCF7 breast
  GI50: 25.7 µM
  TGI: 98.1 µM
MDA-MB-231 breast
  GI50: 20.4 µM
  TGI: 52.6 µM
MDA-MB-468 breast
  GI50: 10.6 µM
  TGI: 23.2 µM
MOLT-4 leukemia
  GI50: 14.5 µM
  TGI: 27.7 µM
NCI-H23 lung
  GI50: 20.3 µM
  TGI: 42.2 µM
NCI-H322M lung
  GI50: 20.4 µM
  TGI: > 69.2 µM
NCI-H460 NSCLC
  GI50: 19.6 µM
  TGI: 41.2 µM
NCI-H522 lung
  GI50: 4.12 µM
  TGI: 15.7 µM
NCI/ADR-RES ovarian
  GI50: 15.9 µM
  TGI: 34.5 µM
OVCAR-4 ovarian
  GI50: 21.2 µM
  TGI: 69.7 µM
OVCAR-5 ovarian
  GI50: 38.1 µM
  TGI: > 100 µM
OVCAR-8 ovarian
  GI50: 21.2 µM
  TGI: > 62.2 µM
PC-3 prostate
  GI50: 18.5 µM
  TGI: 41.2 µM
RPMI-8226 leukemia
  GI50: 9.92 µM
  TGI: 22.3 µM
RXF 393 renal
  GI50: 15.1 µM
  TGI: 36.6 µM
SF-295 CNS
  GI50: 26.1 µM
  TGI: > 71.1 µM
SF-539 CNS
  GI50: 20.9 µM
  TGI: > 58.6 µM
SN12C renal
  GI50: 17 µM
  TGI: 43 µM
SNB-19 CNS
  GI50: 23.4 µM
  TGI: 71.7 µM
SNB-75 CNS
  GI50: 15 µM
  TGI: 36.5 µM
SR leukemia
  GI50: 8.25 µM
  TGI: 21.3 µM
SW-620 colon
  GI50: 18.6 µM
  TGI: 34 µM
T-47D breast
  GI50: 17.7 µM
  TGI: 46.6 µM
U251 glioblastoma
  GI50: 18.6 µM
  TGI: 40.6 µM
UACC-257 melanoma
  GI50: 18.1 µM
  TGI: 34.2 µM
UACC-62 melanoma
  GI50: 16.6 µM
  TGI: 33.5 µM
UO-31 renal
  GI50: 22.3 µM
  TGI: > 100 µM

— PubChem BioAssay (NCI)
